ChEMBL document CHEMBL3885881, “DrugMatrix”

Organism: Rattus norvegicus
Test: DrugMatrix - Regimen: Daily Repeat
Assay type: toxicity, organism-based, Sprague-Dawley
Design: regimen Daily Repeat, gender Male, age 6-8 weeks
Settings: in vivo, po, route oral GAVAGE, vehicle .5 % CMC; for ABSOLUTE BASOPHIL / ABSOLUTE EOSINOPHIL / ABSOLUTE LYMPHOCYTE / ABSOLUTE MONOCYTE / ABSOLUTE SEGMENTED NEUTROPHIL / BASOPHIL / EOSINOPHIL / ERYTHROCYTE COUNT / HEMATOCRIT / HEMOGLOBIN / LEUKOCYTE COUNT / LYMPHOCYTE / MEAN CORPUSCULAR HEMOGLOBIN / MEAN CORPUSCULAR HEMOGLOBIN CONCENTRATION / MEAN CORPUSCULAR VOLUME / MONOCYTE / NEUTROPHIL / NUCLEATED RED BLOOD CELLS / PLATELET COUNT: tissue Blood; for ALANINE AMINOTRANSFERASE / ALBUMIN / ALKALINE PHOSPHATASE / ASPARTATE AMINOTRANSFERASE / BLOOD UREA NITROGEN / CARBON DIOXIDE / CHLORIDE / CHOLESTEROL / CREATINE PHOSPHOKINASE / CREATININE / GLUCOSE / LACTATE DEHYDROGENASE / LIPASE / PHOSPHORUS / POTASSIUM / SODIUM / TOTAL BILIRUBIN / TOTAL PROTEIN / URIC ACID: tissue Plasma
[1] = 50 mg/kg, 72 h, dose level Low, time 3 day
[2] = 50 mg/kg, 120 h, dose level Low, time 5 day
[3] = 350 mg/kg, 72 h, dose level High, time 3 day
[4] = 350 mg/kg, 120 h, dose level High, time 5 day

Cc1cccc(C)c1OCC(C)N (configuration not stated) [MEXILETINE]
ABSOLUTE BASOPHIL [1]: 0 CELLS/uL
ABSOLUTE EOSINOPHIL [1]: 76.67 CELLS/uL
ABSOLUTE LYMPHOCYTE [1]: 11625.67 CELLS/uL
ABSOLUTE MONOCYTE [1]: 164.33 CELLS/uL
ABSOLUTE SEGMENTED NEUTROPHIL [1]: 733.33 CELLS/uL
BASOPHIL [1]: 0%
EOSINOPHIL [1]: 0.67%
ERYTHROCYTE COUNT [1]: 5.83 x10E6/uL
HEMATOCRIT [1]: 36.67%
HEMOGLOBIN [1]: 13.2 G/DL
LEUKOCYTE COUNT [1]: 12.6 x10E3/uL
LYMPHOCYTE [1]: 92.33%
MEAN CORPUSCULAR HEMOGLOBIN [1]: 22.63 pg
MEAN CORPUSCULAR HEMOGLOBIN CONCENTRATION [1]: 36 G/DL
MEAN CORPUSCULAR VOLUME [1]: 62.9 fL
MONOCYTE [1]: 1.33%
NEUTROPHIL [1]: 5.67%
NUCLEATED RED BLOOD CELLS [1]: 0 /100WBC
PLATELET COUNT [1]: 1579.67 x10E3/uL
ALANINE AMINOTRANSFERASE [1]: 39.67 u/L
ALBUMIN [1]: 4.47 G/DL
ALKALINE PHOSPHATASE [1]: 347.33 u/L
ASPARTATE AMINOTRANSFERASE [1]: 70.33 u/L
BLOOD UREA NITROGEN [1]: 15 mg/dL
CARBON DIOXIDE [1]: 26.67 mmol/L
CHLORIDE [1]: 103.33 MEQ/L
CHOLESTEROL [1]: 73 mg/dL
CREATINE PHOSPHOKINASE [1]: 249.33 u/L
CREATININE [1]: 0.18 mg/dL
GLUCOSE [1]: 168.67 mg/dL
LACTATE DEHYDROGENASE [1]: 90 u/L
LIPASE [1]: 9 u/L
PHOSPHORUS [1]: 13.23 mg/dL
POTASSIUM [1]: 6.67 MEQ/L
SODIUM [1]: 144.43 MEQ/L
TOTAL BILIRUBIN [1]: 0.2 mg/dL
TOTAL PROTEIN [1]: 6 G/DL
URIC ACID [1]: 2.37 mg/dL
ABSOLUTE BASOPHIL [2]: 0 CELLS/uL
ABSOLUTE EOSINOPHIL [2]: 311.67 CELLS/uL
ABSOLUTE LYMPHOCYTE [2]: 17277 CELLS/uL
ABSOLUTE MONOCYTE [2]: 358.33 CELLS/uL
ABSOLUTE SEGMENTED NEUTROPHIL [2]: 1686.33 CELLS/uL
BASOPHIL [2]: 0%
EOSINOPHIL [2]: 1.67%
ERYTHROCYTE COUNT [2]: 5.61 x10E6/uL
HEMATOCRIT [2]: 35.37%
HEMOGLOBIN [2]: 13.43 G/DL
LEUKOCYTE COUNT [2]: 19.63 x10E3/uL
LYMPHOCYTE [2]: 88%
MEAN CORPUSCULAR HEMOGLOBIN [2]: 23.97 pg
MEAN CORPUSCULAR HEMOGLOBIN CONCENTRATION [2]: 38 G/DL
MEAN CORPUSCULAR VOLUME [2]: 63.13 fL
MONOCYTE [2]: 1.67%
NEUTROPHIL [2]: 8.67%
NUCLEATED RED BLOOD CELLS [2]: 0 /100WBC
PLATELET COUNT [2]: 1342.33 x10E3/uL
ALANINE AMINOTRANSFERASE [2]: 52 u/L
ALBUMIN [2]: 4.23 G/DL
ALKALINE PHOSPHATASE [2]: 414.33 u/L
ASPARTATE AMINOTRANSFERASE [2]: 89 u/L
BLOOD UREA NITROGEN [2]: 18.67 mg/dL
CARBON DIOXIDE [2]: 24.33 mmol/L
CHLORIDE [2]: 106.67 MEQ/L
CHOLESTEROL [2]: 62 mg/dL
CREATINE PHOSPHOKINASE [2]: 325.67 u/L
CREATININE [2]: 0.19 mg/dL
GLUCOSE [2]: 163.67 mg/dL
LACTATE DEHYDROGENASE [2]: 469 u/L
LIPASE [2]: 8.67 u/L
PHOSPHORUS [2]: 12.77 mg/dL
POTASSIUM [2]: 6.24 MEQ/L
SODIUM [2]: 144.53 MEQ/L
TOTAL BILIRUBIN [2]: 0.3 mg/dL
TOTAL PROTEIN [2]: 6.4 G/DL
URIC ACID [2]: 1.83 mg/dL
ABSOLUTE BASOPHIL [3]: 0 CELLS/uL
ABSOLUTE EOSINOPHIL [3]: 77.33 CELLS/uL
ABSOLUTE LYMPHOCYTE [3]: 8910.33 CELLS/uL
ABSOLUTE MONOCYTE [3]: 236 CELLS/uL
ABSOLUTE SEGMENTED NEUTROPHIL [3]: 643 CELLS/uL
BASOPHIL [3]: 0%
EOSINOPHIL [3]: 0.67%
ERYTHROCYTE COUNT [3]: 6.04 x10E6/uL
HEMATOCRIT [3]: 38.2%
HEMOGLOBIN [3]: 14.37 G/DL
LEUKOCYTE COUNT [3]: 9.87 x10E3/uL
LYMPHOCYTE [3]: 90.33%
MEAN CORPUSCULAR HEMOGLOBIN [3]: 23.87 pg
MEAN CORPUSCULAR HEMOGLOBIN CONCENTRATION [3]: 37.63 G/DL
MEAN CORPUSCULAR VOLUME [3]: 63.37 fL
MONOCYTE [3]: 2.33%
NEUTROPHIL [3]: 6.67%
NUCLEATED RED BLOOD CELLS [3]: 0.33 /100WBC
PLATELET COUNT [3]: 1205.33 x10E3/uL
ALANINE AMINOTRANSFERASE [3]: 60.67 u/L
ALBUMIN [3]: 5.13 G/DL
ALKALINE PHOSPHATASE [3]: 464.67 u/L
ASPARTATE AMINOTRANSFERASE [3]: 73.67 u/L
BLOOD UREA NITROGEN [3]: 13 mg/dL
CARBON DIOXIDE [3]: 27.33 mmol/L
CHLORIDE [3]: 102 MEQ/L
CHOLESTEROL [3]: 86 mg/dL
CREATINE PHOSPHOKINASE [3]: 277.67 u/L
CREATININE [3]: 0.21 mg/dL
GLUCOSE [3]: 139.67 mg/dL
LACTATE DEHYDROGENASE [3]: 118 u/L
LIPASE [3]: 9 u/L
PHOSPHORUS [3]: 10.8 mg/dL
POTASSIUM [3]: 5.61 MEQ/L
SODIUM [3]: 145.8 MEQ/L
TOTAL BILIRUBIN [3]: 0.23 mg/dL
TOTAL PROTEIN [3]: 7.07 G/DL
URIC ACID [3]: 0.77 mg/dL
ABSOLUTE BASOPHIL [4]: 0 CELLS/uL
ABSOLUTE EOSINOPHIL [4]: 203 CELLS/uL
ABSOLUTE LYMPHOCYTE [4]: 12514 CELLS/uL
ABSOLUTE MONOCYTE [4]: 136 CELLS/uL
ABSOLUTE SEGMENTED NEUTROPHIL [4]: 747 CELLS/uL
BASOPHIL [4]: 0%
EOSINOPHIL [4]: 1.5%
ERYTHROCYTE COUNT [4]: 6.13 x10E6/uL
HEMATOCRIT [4]: 38%
HEMOGLOBIN [4]: 14.05 G/DL
LEUKOCYTE COUNT [4]: 13.6 x10E3/uL
LYMPHOCYTE [4]: 92%
MEAN CORPUSCULAR HEMOGLOBIN [4]: 22.9 pg
MEAN CORPUSCULAR HEMOGLOBIN CONCENTRATION [4]: 37 G/DL
MEAN CORPUSCULAR VOLUME [4]: 62.05 fL
MONOCYTE [4]: 1%
NEUTROPHIL [4]: 5.5%
NUCLEATED RED BLOOD CELLS [4]: 0 /100WBC
PLATELET COUNT [4]: 1422.5 x10E3/uL
ALANINE AMINOTRANSFERASE [4]: 55 u/L
ALBUMIN [4]: 4.35 G/DL
ALKALINE PHOSPHATASE [4]: 464 u/L
ASPARTATE AMINOTRANSFERASE [4]: 93.5 u/L
BLOOD UREA NITROGEN [4]: 15 mg/dL
CARBON DIOXIDE [4]: 24 mmol/L
CHLORIDE [4]: 105 MEQ/L
CHOLESTEROL [4]: 59 mg/dL
CREATINE PHOSPHOKINASE [4]: 283.5 u/L
CREATININE [4]: 0.22 mg/dL
GLUCOSE [4]: 182.5 mg/dL
LACTATE DEHYDROGENASE [4]: 152 u/L
LIPASE [4]: 8.5 u/L
PHOSPHORUS [4]: 12.7 mg/dL
POTASSIUM [4]: 5.83 MEQ/L
SODIUM [4]: 145.35 MEQ/L
TOTAL BILIRUBIN [4]: 0.2 mg/dL
TOTAL PROTEIN [4]: 6.4 G/DL
URIC ACID [4]: 2 mg/dL
